Test results as given in paper PMC10415461 (Molecular Diversity, 2022).
Converted amounts (≈) assume the structure as drawn. Like-named read-outs stand apart in the source and are kept apart here.

Columns and labels:
[1] = system: S. aureus (ATCC 6538); experiment: Antibacterial MIC, standard agar cup diffusion method; format: cell-based, Staphylococcus aureus; settings: Staphylococcus aureus, ATCC6538, 37 °C, 24 h, read-out: MIC S. aureus (Gram-positive)
Protocol: (§1) The antibacterial and antifungal activities of compounds, ketone 1, 2a-j, and 5a-i were evaluated in vitro against S. aureus (ATCC 6538), P. aeruginosa (ATCC 10,145), E. coli (ATCC 8739), and C. albicans (ATCC 10,231). […] Standard strains of Staphylococcus aureus (ATCC 6538), Pseudomonas aeruginosa (ATCC 10,145), and Escherichia coli (ATCC 8739) were obtained from microbiological resource center, Faculty of Agriculture, Ain Shams University, Cairo, Egypt. All isolates were maintained at -70 °C in Trypticase Soya Broth (TSB, Becton, and Dickinson) with 10% glycerol. Prior to inoculation, all isolates were subcultured at 37 °C for 24 h on Trypticase Soya Agar (TSA, Becton, and Dickinson) and TSB, respectively.
(§2) The plates were rotated slowly to ensure uniform distribution of the microorganisms and then allowed to solidify on a flat surface. After solidification, four equidistant and circular wells of 10 mm diameter were carefully punched using a sterile cork bore. Twofold serial dilutions of the tested compounds using DMSO were performed. An equal volume of 100µL of each dilution was applied separately to each well in three replicates using a micropipette. All plates were incubated at 37 °C for 24 h. The inhibition zones were measured, and their average was calculated.

[2] = biological target: S. aureus DNA gyrase (Staphylococcus aureus, UniProt P0A0K8+P20831); experiment: Staphylococcus aureus DNA gyrase supercoiling assay; format: biochemical; settings: supercoiling of relaxed pBR322, 37 °C, 30 min; read-out: S. aureus DNA gyrase IC50 ± SD
Protocol: As antibacterial agents, fluoroquinolones act by targeting and inhibiting DNA gyrase (topo II) which is an essential enzyme involved in the DNA replication process.
Staphylococcus aureus DNA gyrase was incubated at 37 °C for 30 min in a total reaction volume of 30 μl containing 40 mM HEPES. KOH (pH 7.6), 10 mM magnesium acetate, 10 mM DTT, 2 mM ATP, 500 mM potassium glutamate, 0.05 mg/ml albumin and Relaxed pBR322. DNA gyrase supercoiling reactions catalyzed by S. aureus gyrase, Stop reaction by adding 30 μL of STEB and 30 μL of chloroform/isoamyl alcohol (v:v, 24:1),and then Vortex briefly ~ 5 secs and centrifuge for 1 min. after which 20 µL of this was loaded on a 1% agarose gel that was then run at ~ 75 V for approximately 2 h. The gel was stained by (0.5 mg/L) ethidium bromide in water. Fluorescent images were taken at a wavelength of 300 nm on a UV transilluminator imaging system. The fluorescence intensity of the supercoiled plasmid reaction product was quantitated using ImagQuant software (Molecular Dynamics).

[3] = system: tested bacterial strains (Gram positive or Gram negative: S. aureus, P. aeruginosa, E. coli); experiment: Antibacterial MIC range over the tested bacterial strains; format: cell-based; settings: range over Gram positive and Gram negative strains
Protocol: . Standard strains of Staphylococcus aureus (ATCC 6538), Pseudomonas aeruginosa (ATCC 10,145), and Escherichia coli (ATCC 8739) were obtained from microbiological resource center, Faculty of Agriculture, Ain Shams University, Cairo, Egypt. All isolates were maintained at -70 °C in Trypticase Soya Broth (TSB, Becton, and Dickinson) with 10% glycerol. Prior to inoculation, all isolates were subcultured at 37 °C for 24 h on Trypticase Soya Agar (TSA, Becton, and Dickinson) and TSB, respectively.
as §2, with “calculated. The MIC was calculated by plotting the natural logarithm of the concentration of each dilution of the tested compounds against the square of zones of inhibition, and a regression line was drawn through the points then the antilogarithm of the intercept on the logarithm of concentration axis gave the MIC value.” for “calculated.”

[4] = system: E. coli (ATCC 8739); experiment: Antibacterial MIC, standard agar cup diffusion method; format: cell-based; settings: Escherichia coli, ATCC8739, 37 °C, 24 h, read-out: MIC E. coli (Gram-negative)
Protocol: as §1, §2

[5] = system: P. aeruginosa (ATCC 10,145); experiment: as above; format: cell-based; settings: Pseudomonas aeruginosa, ATCC 10145, 37 °C, 24 h, read-out: MIC P. aeruginosa (Gram-negative)
Protocol: as §1, §2

[6] = system: C. albicans (ATCC 10,231); experiment: Antifungal MIC, agar cup diffusion method; format: cell-based, Candida albicans; settings: Sabouraud agar, 37 °C; for MIC: Candida albicans, ATCC 10,231, 24 h, read-out: MIC C. albicans (Fungi)
Protocol: The antibacterial and antifungal activities of compounds, ketone 1, 2a-j, and 5a-i were evaluated in vitro against S. aureus (ATCC 6538), P. aeruginosa (ATCC 10,145), E. coli (ATCC 8739), and C. albicans (ATCC 10,231). […] The antifungal activity of compounds 1, 2a-j, and 5a-i and ketoconazole were determined according to the agar cup diffusion method at Deraya University, Faculty of Pharmacy, Department of Microbiology.
Fungal strains and culture conditions. […] Standard strain of Candida albicans (ATCC 10,231) was obtained from microbiological resource center, Faculty of Agriculture, Ain Shams University, Cairo, Egypt. The isolate was maintained at -70 °C in Trypticase Soya Broth (TSB, Becton, and Dickinson) with 10% glycerol. Prior to inoculation, the isolate was subcultured at 37 °C for 24 h on Trypticase Soya Agar (TSA, Becton, and Dickinson) and TSB, respectively.
as §2

[7] = physchem; settings: pH 7.8
Protocol: The n-octanol/water apparent partition coefficient at the isoelectric point (or distribution constant) was measured by using the traditional shake-flask technique. The pH of the aqueous buffer was first adjusted to isoelectric point of the compound. The n-octanol and aqueous phases were then mutually saturated before the measurement. […] The samples were agitated for 5h at water bath shaker thermostatized at 25 ± 1^◦C and 100 rpm. The concentration of the solute was determined in the aqueous and organic phases at the isoelectric point by UV spectroscopy the log p value was calculated as follows: […].

[8] = Solubility determination in phosphate buffer; format: physicochemical; settings: aqueous buffer, thermodynamic from solid
Protocol: A sample of drug was accurately weighed and dissolved in 100 ml of distilled water to prepare 100 mcg/ml stock solutions. Appropriate dilution of the stock solution with phosphate buffer pH 6.8 and 7.8 was then made to prepare a working solution of 40mcg/ml.
After determination of λ max of drug, a calibration curve was constructed by preparing solutions containing different concentrations of (1–5 mcg/ml) from stock solution after appropriate dilution with phosphate buffer pH 6.8. The UV absorbance of the prepared sample solutions were measured at the predetermined λ max using phosphate buffer pH 6.8 as a blank.
Aqueous solubility of the complexes was measured as a function of pH. An excess of each derivative was placed into suitable stoppered containers. […] The samples were immersed in a water bath thermostatized at 37 ± 1^◦C and 100 rpm and periodically shaken for 48 h. Once the equilibrium was reached, the pH of the supernatant was regarded.

[9] = system: Gram-negative pathogens; design: method as in doi:10.1016/j.cclet.2016.12.012, doi:10.1515/hc-2016-0125; settings: cited from earlier work
[10] = system: Gram-positive pathogens; design: method as in doi:10.1016/j.cclet.2016.12.012, doi:10.1515/hc-2016-0125; settings: cited from earlier work
[11] = system: fluoroquinolones, vancomycin, and/or linezolid-resistant strains; settings: cited from earlier work
[12] = system: Gram negative and Gram positive; design: method as in PMID 14623004; settings: cited from earlier work
[13] = system: all tested strains, either Gram-positive or Gram-negative pathogens; design: method as in doi:10.1016/j.cclet.2016.12.012, doi:10.1515/hc-2016-0125; settings: reference drug; cited from earlier work
[14] = phosphate buffer pH 6.8, 37 °C, read-out: Solubility pH 6.8
[15] = phosphate buffer pH 7.8, 37 °C, read-out: Solubility pH 7.8

Sequence of S. aureus DNA gyrase (P20831 whole entry): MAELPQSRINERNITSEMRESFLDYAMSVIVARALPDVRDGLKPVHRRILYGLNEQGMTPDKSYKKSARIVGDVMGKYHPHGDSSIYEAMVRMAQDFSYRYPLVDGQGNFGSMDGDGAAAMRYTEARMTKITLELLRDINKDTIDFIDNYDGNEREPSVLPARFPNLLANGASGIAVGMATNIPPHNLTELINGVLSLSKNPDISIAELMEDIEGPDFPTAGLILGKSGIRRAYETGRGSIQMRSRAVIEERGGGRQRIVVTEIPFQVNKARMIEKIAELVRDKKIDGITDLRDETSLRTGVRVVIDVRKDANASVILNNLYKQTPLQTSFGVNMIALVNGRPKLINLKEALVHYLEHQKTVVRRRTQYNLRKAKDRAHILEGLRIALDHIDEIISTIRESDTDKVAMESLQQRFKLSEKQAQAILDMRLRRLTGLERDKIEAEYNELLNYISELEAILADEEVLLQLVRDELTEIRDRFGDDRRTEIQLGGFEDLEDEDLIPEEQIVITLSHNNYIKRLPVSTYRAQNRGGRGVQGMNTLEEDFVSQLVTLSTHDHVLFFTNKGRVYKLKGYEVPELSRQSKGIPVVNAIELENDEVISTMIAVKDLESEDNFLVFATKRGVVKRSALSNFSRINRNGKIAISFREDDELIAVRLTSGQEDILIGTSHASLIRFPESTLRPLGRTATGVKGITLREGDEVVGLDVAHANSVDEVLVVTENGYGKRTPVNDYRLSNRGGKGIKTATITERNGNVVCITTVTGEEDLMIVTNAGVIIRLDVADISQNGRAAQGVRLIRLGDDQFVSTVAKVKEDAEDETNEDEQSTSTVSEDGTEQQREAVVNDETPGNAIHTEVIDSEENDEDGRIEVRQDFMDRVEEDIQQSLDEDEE
Sequence of S. aureus DNA gyrase (P0A0K8 whole entry): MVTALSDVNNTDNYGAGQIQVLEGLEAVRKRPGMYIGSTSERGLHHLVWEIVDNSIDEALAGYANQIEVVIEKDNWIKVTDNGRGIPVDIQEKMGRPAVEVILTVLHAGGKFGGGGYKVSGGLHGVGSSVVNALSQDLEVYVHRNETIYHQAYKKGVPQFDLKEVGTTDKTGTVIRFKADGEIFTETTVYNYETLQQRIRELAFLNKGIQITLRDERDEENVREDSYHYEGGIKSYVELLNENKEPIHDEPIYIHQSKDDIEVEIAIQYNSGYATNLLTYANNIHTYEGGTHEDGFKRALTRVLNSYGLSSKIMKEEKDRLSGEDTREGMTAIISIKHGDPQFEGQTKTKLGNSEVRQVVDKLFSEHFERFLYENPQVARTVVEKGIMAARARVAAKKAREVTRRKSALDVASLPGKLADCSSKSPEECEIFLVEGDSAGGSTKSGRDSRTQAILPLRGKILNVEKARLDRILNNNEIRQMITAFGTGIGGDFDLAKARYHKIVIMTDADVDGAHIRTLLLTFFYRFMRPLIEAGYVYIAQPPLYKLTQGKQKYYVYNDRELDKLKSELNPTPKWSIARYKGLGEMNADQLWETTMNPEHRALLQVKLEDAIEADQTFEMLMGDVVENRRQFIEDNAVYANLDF

Row | Compound | MIC [1] [µg/mL] | IC50 [2] [nM] | MIC range against the tested bacterial strains [3] [µg/mL] | MIC [4] [µg/mL] | MIC [5] [µg/mL] | melting point [°C] | MIC [6] [µg/mL] | logD [7] | MIC C. albicans (Fungi) ([6]; 24 h) [µg/mL] | solubility at 48 h [8, 14] [µg/mL] | solubility at 48 h [8, 15] [µg/mL] | MIC [9] [µg/mL] | MIC [10] [µg/mL] | MIC range [11] [µg/mL] | MIC range [12] [µg/mL] | MIC [13] [µg/mL]
1 | COc1ccc(-c2nc(SCC(=O)N3CCN(c4cc5c(cc4F)c(=O)c(C(=O)O)cn5C4CC4)CC3)[nH]c(=O)c2C#N)cc1OC [Compound 5h, 7-(4-(2-((5-Cyano-4-(3,4-dimethoxyphenyl)-6-oxo-1,6-dihydropyrimidin-2-yl)thio)acetyl)piperazin-1-yl)-1-cyclopropyl-6-fluoro-4-oxo-1,4-dihydroquinoline-3-carboxylic acid] | 0.34 (≈ 0.515 µM) | 1460 ± 80 | 0.06 to 1.53 | 0.21 (≈ 0.318 µM) | 0.49 (≈ 0.742 µM) | 266 to 269 | 28.7 (≈ 43.5 µM) | – | – | – | – | – | – | – | – | –
2 | O=C(/C=C/c1ccc(Cl)cc1)c1ccc(NC(=O)N2CCN(c3cc4c(cc3F)c(=O)c(C(=O)O)cn4C3CC3)CC2)cc1 [Compound 2c] | 0.67 (≈ 1.09 µM) | 3000 ± 160 | 0.06 to 1.53 | 0.34 (≈ 0.553 µM) | 1.03 (≈ 1.67 µM) | – | 2.03 to 3.89 (≈ 3.3 to 6.32 µM) | 0.07 | 3.89 (≈ 6.32 µM) | 130 (≈ 211 µM) | 150 (≈ 244 µM) | – | – | – | – | –
3 | N#Cc1c(-c2cccc(Cl)c2)nc(SCC(=O)N2CCN(c3cc4c(cc3F)c(=O)c(C(=O)O)cn4C3CC3)CC2)[nH]c1=O [Compound 5b, 7-(4-(2-((4-(3-Chlorophenyl)-5-cyano-6-oxo-1,6-dihydropyrimidin-2-yl)thio)acetyl)piperazin-1-yl)-1-cyclopropyl-6-fluoro-4-oxo-1,4-dihydroquinoline-3-carboxylic acid] | 0.7 (≈ 1.1 µM) | 1270 ± 70 | 0.06 to 1.53 | 0.12 (≈ 0.189 µM) | 0.19 (≈ 0.299 µM) | 248 to 251 | > 100 | – | – | – | – | – | – | – | – | –
4 | O=C(/C=C/c1cccc(Cl)c1)c1ccc(NC(=O)N2CCN(c3cc4c(cc3F)c(=O)c(C(=O)O)cn4C3CC3)CC2)cc1 [Compound 2b] | 0.06 (≈ 0.0976 µM) | 231 ± 10 | 0.06 to 1.53 | 0.18 (≈ 0.293 µM) | 0.64 (≈ 1.04 µM) | – | 15.2 (≈ 24.8 µM) | 0.31 | – | 160 (≈ 260 µM) | 180 (≈ 293 µM) | – | – | – | – | –
5 | COc1cccc(-c2nn(CN3CCN(c4cc5c(cc4F)c(=O)c(C(=O)O)cn5C4CC4)CC3)c(=S)n2Cc2ccc(Br)cc2Cl)c1 [hybrid I] | – | – | – | – | – | – | – | – | – | – | – | 0.01 to 1.32 | < 0.24 | – | – | –
6 | COc1cc(-c2nc(SCC(=O)N3CCN(c4cc5c(cc4F)c(=O)c(C(=O)O)cn5C4CC4)CC3)[nH]c(=O)c2C#N)cc(OC)c1OC [Compound 5i, 7-(4-(2-((5-Cyano-6-oxo-4-(3,4,5-trimethoxyphenyl)-1,6-dihydropyrimidin-2-yl)thio)acetyl)piperazin-1-yl)-1-cyclopropyl-6-fluoro-4-oxo-1,4-dihydroquinoline-3-carboxylic acid] | 0.74 (≈ 1.07 µM) | 1410 ± 70 | 0.06 to 1.53 | 0.63 (≈ 0.912 µM) | 0.13 (≈ 0.188 µM) | 284 to 285 | > 100 | – | – | – | – | – | – | – | – | –
7 | CC(=O)NC[C@H]1CN(c2ccc(N3CCN(c4cc5c(cc4F)c(=O)c(C(=O)O)cn5C4CC4)CC3)c(F)c2)C(=O)O1 [hybrid II] | – | – | – | – | – | – | – | – | – | – | – | – | – | 0.25 to 0.5 | 0.125 to 4 | –
8 | N#Cc1c(-c2ccccc2)nc(SCC(=O)N2CCN(c3cc4c(cc3F)c(=O)c(C(=O)O)cn4C3CC3)CC2)[nH]c1=O [Compound 5a, 7-(4-(2-((5-Cyano-6-oxo-4-phenyl-1,6-dihydropyrimidin-2-yl)thio)acetyl)piperazin-1-yl)-1-cyclopropyl-6-fluoro-4-oxo-1,4-dihydroquinoline-3-carboxylic acid] | 0.36 (≈ 0.599 µM) | 4550 ± 240 | 0.06 to 1.53 | 0.91 (≈ 1.52 µM) | 1.53 (≈ 2.55 µM) | 237 to 240 | 6.23 (≈ 10.4 µM) | – | – | – | – | – | – | – | – | –
9 | CC1(C)S[C@@H]2[C@H](NC(=O)[C@H](N)c3ccccc3)C(=O)N2[C@H]1C(=O)O [ampicillin] | – | – | – | – | – | – | – | – | – | – | – | – | – | – | – | 3.9 to 250
10 | O=C(O)c1cn(C2CC2)c2cc(N3CCNCC3)c(F)cc2c1=O [Ciprofloxacin, reference compound] | 3.25 (≈ 9.81 µM) | – | 0.15 to 3.25 | 0.15 (≈ 0.453 µM) | 0.22 (≈ 0.664 µM) | – | – | – | – | – | – | – | – | – | – | –
